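Grown in 96-well plates, cells were treated for 48 hours with each compound at five concentrations. Insufficient inhibition: endpoint recorded as highest concentration tested. GI50 marks 50% less growth.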 Activity calls are given as the source filed them. Rule as the data show it: active = GI50 up to about 1.1 µM and inactive = higher. Where only a bound is given, the exact number is not on record here.

Among the test systems are Malme-3M; OVCAR-8; OVCAR-4; A498; ACHN; SK-MEL-2; UACC-62; NCI-H460; OVCAR-5; SK-MEL-5; UO-31; EKVX; MOLT-4; HL-60; HOP-92; HCT-116; OVCAR-3; SN12C; LOX IMVI; HCC 2998.
Holding throughout (assay): growth of human tumour cells (NCI), 48 h

With `O=C(NNC(=O)c1ccncc1)c1ccncc1`, the GI50 in the assay with Malme-3M, in the assay on OVCAR-8, with OVCAR-4, with A498, in the assay with ACHN and in the assay on SK-MEL-2 was > 100 µM (inactive) each time. Moreover, the GI50 in the assay with UACC-62, in the assay with NCI-H460, in the assay with OVCAR-5, in the assay with SK-MEL-5, in the assay with UO-31 and in the assay with EKVX was > 100 µM (inactive) throughout. For the same compound, the GI50 in the assay with MOLT-4, in the assay with HL-60, in the assay with HOP-92, in the assay with HCT-116, in the assay with OVCAR-3 and in the assay on SN12C was > 100 µM (inactive) in each case. For the same compound, the GI50 in the assay with LOX IMVI is > 100 µM (inactive).

Take `CSc1nc(=O)n(CCC#N)nc1SC`: the GI50 in the assay with Malme-3M was 15.2 µM (inactive); in the assay with OVCAR-8 it was 59.6 µM (inactive); in the assay with A498, > 100 µM (inactive); in the assay with ACHN, 38.8 µM (inactive); in the assay on SK-MEL-2 it was 14.5 µM (inactive); in the assay with UACC-62, 32.3 µM (inactive). Besides, the GI50 was > 100 µM (inactive) with NCI-H460; 41.8 µM (inactive) in the assay on OVCAR-5; 19.1 µM (inactive) in the assay on SK-MEL-5; 51.8 µM (inactive) in the assay on UO-31; > 100 µM (inactive) with EKVX; 23.7 µM (inactive) in the assay on MOLT-4. Further, the GI50 in the assay with HL-60 is 4.19 µM (inactive); with HCT-116, 16.5 µM (inactive); in the assay on OVCAR-3, 16.1 µM (inactive); in the assay with SN12C it was 47.9 µM (inactive); in the assay on LOX IMVI it was 19.5 µM (inactive); in the assay on HCC 2998, 15 µM (inactive).

For `COC(=O)C[C@H](COCc1ccccc1)NC(=O)C[C@H](COCc1ccccc1)NC(=O)C[C@H](COCc1ccccc1)NC(=O)OC(C)(C)C`, the GI50 is > 100 µM (inactive) in the assay with Malme-3M; 23.8 µM (inactive) in the assay on OVCAR-8; 3.97 µM (inactive) with OVCAR-4; 24 µM (inactive) in the assay on A498; 80.9 µM (inactive) with ACHN; > 100 µM (inactive) in the assay with SK-MEL-2. Besides, the GI50 with UACC-62 was > 100 µM (inactive); in the assay on OVCAR-5, > 100 µM (inactive); with SK-MEL-5, > 100 µM (inactive); in the assay with UO-31 it was > 100 µM (inactive); in the assay with EKVX it was 25.8 µM (inactive); with MOLT-4, > 100 µM (inactive). Besides, the GI50 in the assay with HL-60 is > 100 µM (inactive); with HOP-92 it was 24.8 µM (inactive); in the assay with HCT-116 it was 14.5 µM (inactive); in the assay on OVCAR-3 it was > 100 µM (inactive); with SN12C, 41.4 µM (inactive); in the assay with LOX IMVI, 58.7 µM (inactive).

With `[O-]/N=[N+](/[O-])C1CCCCC1=[N+]1CCOCC1` (configuration not stated), the GI50 in the assay with Malme-3M, in the assay with OVCAR-8, with OVCAR-4, in the assay with A498, in the assay on ACHN and with SK-MEL-2 was > 100 µM (inactive) each time. Also, the GI50 in the assay with UACC-62, in the assay on NCI-H460, with OVCAR-5, in the assay with UO-31, in the assay with EKVX and in the assay on MOLT-4 was > 100 µM (inactive) each time. Also, the GI50 in the assay with HL-60, with HOP-92, in the assay on HCT-116, with OVCAR-3 and with SN12C was > 100 µM (inactive) each time.

With `COC(=O)c1cc(CC(C)C)c2c(c1)[nH]c1ccccc12`, the GI50 in the assay with Malme-3M, in the assay on OVCAR-8, in the assay with OVCAR-4, in the assay on A498, in the assay on ACHN and in the assay with SK-MEL-2 was > 100 µM (inactive) throughout. Also, the GI50 with UACC-62 is 96.8 µM (inactive); with NCI-H460 it was > 100 µM (inactive); in the assay with OVCAR-5, > 100 µM (inactive); with SK-MEL-5 it was 78.7 µM (inactive); in the assay on UO-31, > 100 µM (inactive); with EKVX it was > 100 µM (inactive). The GI50 was 34 µM (inactive) in the assay on MOLT-4; 43.5 µM (inactive) in the assay with HOP-92; > 100 µM (inactive) in the assay on HCT-116; > 100 µM (inactive) in the assay on OVCAR-3; > 100 µM (inactive) with SN12C; > 100 µM (inactive) in the assay on LOX IMVI. For the same compound, in the assay with HCC 2998, the GI50 is 70.8 µM (inactive).

In the case of `O=C(/C=C/c1ccc(-c2ccccc2)cc1)NCc1ccc(C(=O)NCCc2c[nH]c3ccccc23)cc1`, the GI50 in the assay with Malme-3M is 33.4 µM (inactive); with OVCAR-8, 13.6 µM (inactive); with OVCAR-4, 14.8 µM (inactive); in the assay with A498, 32.8 µM (inactive); in the assay on ACHN, 35.8 µM (inactive); with SK-MEL-2, 33.5 µM (inactive). The GI50 in the assay with UACC-62 was 29 µM (inactive); with NCI-H460, 31.7 µM (inactive); in the assay on OVCAR-5, 11.5 µM (inactive); in the assay with SK-MEL-5, 26 µM (inactive); with UO-31, 26.7 µM (inactive); in the assay on EKVX, 34.2 µM (inactive). The GI50 in the assay on MOLT-4 was 16.6 µM (inactive); in the assay on HOP-92, 20.1 µM (inactive); with HCT-116, 46.9 µM (inactive); in the assay with OVCAR-3 it was 28.9 µM (inactive); with SN12C, 5.08 µM (inactive); in the assay with LOX IMVI it was 48.9 µM (inactive). In the assay with HCC 2998, the GI50 was 83.4 µM (inactive).

For `COc1cc(OCCN(C)C)c2[nH]c(C(=O)N3CC(CCl)c4ccc(N)cc43)cc2c1` (configuration not stated), the GI50 with Malme-3M is 0.0904 µM (active); in the assay with OVCAR-8, 0.0432 µM (active); with OVCAR-4, 0.029 µM (active); with A498 it was 0.201 µM (active); in the assay with ACHN, 0.0178 µM (active); in the assay with SK-MEL-2, 0.0381 µM (active). Moreover, the GI50 with UACC-62 was 0.0404 µM (active); with NCI-H460, 0.0147 µM (active); in the assay with OVCAR-5, 0.0656 µM (active); in the assay on SK-MEL-5 it was 0.0342 µM (active); with UO-31 it was 0.0195 µM (active); in the assay on EKVX, 0.108 µM (active). Also, the GI50 in the assay on MOLT-4 was < 0.01 µM (active); in the assay with HOP-92, 0.0596 µM (active); in the assay on HCT-116, 0.0238 µM (active); in the assay on OVCAR-3 it was 0.0282 µM (active); with SN12C, 0.0597 µM (active); in the assay with LOX IMVI, 0.021 µM (active). Also, the GI50 in the assay with HCC 2998 is 0.0265 µM (active).

Take `CO/C(=C/C(=O)C(Cl)(Cl)Cl)CC/C(=C\C(=O)C(Cl)(Cl)Cl)OC`: the GI50 is 23 µM (inactive) in the assay with Malme-3M; 21.9 µM (inactive) in the assay with OVCAR-8; 19.1 µM (inactive) in the assay on OVCAR-4; 35.3 µM (inactive) with A498; 24.5 µM (inactive) in the assay with ACHN; 32.4 µM (inactive) in the assay with SK-MEL-2. Besides, the GI50 in the assay with UACC-62 is 22 µM (inactive); in the assay on NCI-H460 it was 29.1 µM (inactive); in the assay on OVCAR-5, 27.8 µM (inactive); with SK-MEL-5, 34.2 µM (inactive); in the assay with UO-31, 20.5 µM (inactive); with EKVX it was 20.4 µM (inactive). The GI50 was 21.4 µM (inactive) in the assay with MOLT-4; 26.4 µM (inactive) with HL-60; 18.4 µM (inactive) with HOP-92; 18.8 µM (inactive) in the assay with HCT-116; 26.8 µM (inactive) in the assay on OVCAR-3; 23.2 µM (inactive) in the assay with SN12C. Besides, the GI50 with LOX IMVI is 19.6 µM (inactive).

In the case of `O=C1NC2CCC(C2)C1c1ccccc1` (configuration not stated), the GI50 in the assay on Malme-3M, in the assay with OVCAR-8, in the assay on OVCAR-4, in the assay on A498, in the assay on ACHN and in the assay on UACC-62 was > 100 µM (inactive) each time. In addition, the GI50 with NCI-H460, in the assay with OVCAR-5, in the assay with SK-MEL-5, in the assay on UO-31, in the assay with EKVX and in the assay on MOLT-4 was > 100 µM (inactive) each time. In addition, the GI50 in the assay with HL-60, in the assay on OVCAR-3, in the assay with SN12C, in the assay with LOX IMVI and in the assay with HCC 2998 was > 100 µM (inactive) in each case.

As to `Nc1nc(Cl)c(N)c(NC23CC4CC(CC(C4)C2)C3)n1`, the GI50 in the assay with Malme-3M is 3.16 µM (inactive); in the assay on OVCAR-8 it was 2.55 µM (inactive); in the assay with OVCAR-4, 1.85 µM (inactive); with A498 it was 2.88 µM (inactive); with ACHN it was 1.78 µM (inactive); with SK-MEL-2, 0.147 µM (active). Moreover, the GI50 in the assay on UACC-62 was 1.63 µM (inactive); in the assay on NCI-H460 it was 3.07 µM (inactive); in the assay with OVCAR-5, 1.4 µM (inactive); in the assay with SK-MEL-5 it was 1.72 µM (inactive); in the assay with UO-31, 1.69 µM (inactive); with EKVX, 2.18 µM (inactive). Moreover, the GI50 in the assay on MOLT-4 was 2.39 µM (inactive); with HOP-92 it was 3.89 µM (inactive); with HCT-116, 1.58 µM (inactive); in the assay on OVCAR-3 it was 1.64 µM (inactive); with SN12C it was 1.82 µM (inactive); with LOX IMVI it was 3.87 µM (inactive). The GI50 in the assay on HCC 2998 was 2.25 µM (inactive).

`CC(=O)OC1CC[C@@]2(C)C(=CC[C@@H]3[C@@H]2CC[C@]2(C)C(OC(C)=O)[C@H](n4ccnc4)C[C@@H]32)C1` (some centres not stated): the GI50 in the assay with Malme-3M was 14.6 µM (inactive); in the assay on OVCAR-8 it was 17.1 µM (inactive); in the assay on OVCAR-4, 20.9 µM (inactive); with A498 it was 90.4 µM (inactive); with ACHN, 40.3 µM (inactive); in the assay with SK-MEL-2 it was 16.8 µM (inactive). For the same compound, the GI50 in the assay on UACC-62 is 16.1 µM (inactive); with NCI-H460 it was 17.4 µM (inactive); with OVCAR-5, 74.1 µM (inactive); with SK-MEL-5, 16.3 µM (inactive); with UO-31, 36.6 µM (inactive); in the assay with EKVX, 37.7 µM (inactive). Further, the GI50 was 12.9 µM (inactive) in the assay on MOLT-4; 8.91 µM (inactive) in the assay with HL-60; 97.5 µM (inactive) in the assay with HOP-92; 14.9 µM (inactive) with HCT-116; 56 µM (inactive) in the assay with SN12C; 18.7 µM (inactive) in the assay on LOX IMVI.

The values above are taken from ChEMBL document CHEMBL1201862, “PubChem BioAssay data set” (2004).
